Experimental findings from patent US20220348590A1, “CYCLOOXYGENASE-2 INHIBITORS AND USES THEREOF” (The Board Institute, Inc., priority 2019, published 2022) are described below.

Like-named read-outs stand apart in the source and are kept apart here.

In the assay the target is T1, human recombinant COX2 (hCOX2) (UniProt P35354).
T1 sequence (P35354 1-604): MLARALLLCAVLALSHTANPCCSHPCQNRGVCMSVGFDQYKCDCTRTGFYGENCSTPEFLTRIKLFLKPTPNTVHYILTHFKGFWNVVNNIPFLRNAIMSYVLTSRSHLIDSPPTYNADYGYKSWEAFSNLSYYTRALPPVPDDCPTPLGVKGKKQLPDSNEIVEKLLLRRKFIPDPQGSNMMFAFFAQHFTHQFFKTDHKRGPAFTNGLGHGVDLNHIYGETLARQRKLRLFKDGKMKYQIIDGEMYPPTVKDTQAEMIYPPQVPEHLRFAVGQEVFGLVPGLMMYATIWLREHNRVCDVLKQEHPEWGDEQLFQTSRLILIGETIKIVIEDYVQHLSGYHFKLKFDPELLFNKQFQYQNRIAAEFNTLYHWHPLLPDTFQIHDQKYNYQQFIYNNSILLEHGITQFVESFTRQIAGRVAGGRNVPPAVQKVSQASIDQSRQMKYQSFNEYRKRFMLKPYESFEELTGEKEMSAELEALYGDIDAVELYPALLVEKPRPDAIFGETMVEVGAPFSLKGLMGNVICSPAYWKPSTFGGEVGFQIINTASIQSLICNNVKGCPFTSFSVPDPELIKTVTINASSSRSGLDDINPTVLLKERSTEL
Put plainly: LCMS-based COX2 enzymatic inhibition assay (PGE2 quantification). Format: biochemical. More on the design: COX2 2 minutes pge2/pge2d4 area ratio Avg; other: 2 minutes; readout pge2/pge2d4 area ratio; average; COX2 2 minutes pge2/pge2d4 area ratio Avg; LLE; average LLE; COX2 2 minutes pge2 area (counts) Avg; readout pge2 area (counts); other: 2 min; "ovine COX2 (oCOX2), human recombinant COX2 (hCOX2)". Particulars: 2 minutes; for COX2 2 minutes pge2/pge2d4 area ratio Avg. LLE / COX2 2 minutes pge2 area (counts) Avg. LLE: average LLE; for IC50: average. In short, it runs like this:
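PGE2 formed from arachidonic acid (final 5 μM, 2 min) was measured by LC-MS-MS against DMSO controls. Enzyme (oCOX-1 0.1 μg or hCOX2 0.2 μg) with hematin/epinephrine cofactors at pH 8.0 was given 10 min at 37 °C with compound first. Twelve-point curves run three times gave IC50.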

The mark [1] stands for this setting: readout pge2/pge2d4 area ratio, read-out: COX2 2 minutes pge2/pge2d4 area ratio Avg. IC50.
Where [2] appears, read: readout pge2 area (counts), read-out: COX2 2 minutes pge2 area (counts) Avg. IC50.
Setting [3] is: read-out: COX2 2 minutes pge2/pge2d4 area ratio Avg. IC50 (microM), readout pge2/pge2d4 area ratio.

`CS(=O)(=O)c1ccc(-c2cccc(NCc3ccco3)n2)cn1` [Compound 250]: the “COX2 2 minutes pge2/pge2d4 area ratio Avg. LLE” value (readout pge2/pge2d4 area ratio) came to 3.529. Also, the IC50 under setting [1] was 3.44 µM and the IC50 under setting [2] came out at 3.47 µM. The “COX2 2 minutes pge2 area (counts) Avg. LLE” value (shortened to “COX2 2 minutes pge2 area”) (readout pge2 area (counts)) turned out to be 3.534.

In the case of `CS(=O)(=O)c1ccc(-c2coc3ccc(NCc4ccco4)nc23)cc1` [Compound 68], the IC50 came out at 0.0402 µM under setting [1] and 0.041 µM under setting [2].

As for `CS(=O)(=O)c1ccc(-c2cccc(OCc3ccc(F)cc3)n2)cc1` [Compound 95], the “COX2 2 minutes pge2/pge2d4 area ratio Avg. LLE” value (readout pge2/pge2d4 area ratio) was 3.43. For the same compound, the IC50 runs as follows: under setting [1], 0.0711 µM; under setting [2], 0.091 µM. For the same compound, the “COX2 2 minutes pge2 area” value (readout pge2 area (counts)) came to 3.477.

For the compound `CS(=O)(=O)c1ccc(-c2cncc(OCc3ccc(Cl)o3)n2)cc1` [Compound 212], the “COX2 2 minutes pge2/pge2d4 area ratio Avg. LLE” value (readout pge2/pge2d4 area ratio) is on record as 2.9422. The IC50 by setting is: under setting [1], 1.47 µM; under setting [2], 1.66 µM. Further, the “COX2 2 minutes pge2 area” value (readout pge2 area (counts)) was determined as 2.889.

As to `CS(=O)(=O)c1ccc(-c2cccc(NCc3cnco3)n2)cc1` [Compound 216], the “COX2 2 minutes pge2/pge2d4 area ratio Avg. LLE” value (readout pge2/pge2d4 area ratio) came to 3.544. Moreover, the IC50 was 1.54 µM under setting [1] and 1.22 µM under setting [2]. In addition, under “readout pge2 area (counts)”, the “COX2 2 minutes pge2 area” value was found to be 3.646.

Regarding `CS(=O)(=O)c1ccc(-c2cncc(NCc3ccno3)n2)cc1` [Compound 202], the “COX2 2 minutes pge2/pge2d4 area ratio Avg. LLE” value (readout pge2/pge2d4 area ratio) was found to be 5.815. The IC50 by setting is: under setting [1], 1.05 µM; under setting [2], 1.19 µM. Besides, the “COX2 2 minutes pge2 area” value (readout pge2 area (counts)) was found to be 5.757.

As for `CS(=O)(=O)c1ccc(-c2cccc(NCc3nccs3)n2)cc1` [Compound 105], the “COX2 2 minutes pge2/pge2d4 area ratio Avg. LLE” value (readout pge2/pge2d4 area ratio) is on record as 3.99. Moreover, the IC50 under setting [1] worked out at 0.0915 µM and the IC50 under setting [2] came out at 0.105 µM. Also, for the setting “readout pge2 area (counts)”, the “COX2 2 minutes pge2 area” value was determined as 3.918.

As for `CS(=O)(=O)c1ccc(-c2cncc(NCc3cccs3)c2)cc1` [Compound 79], the “COX2 2 minutes pge2/pge2d4 area ratio Avg. LLE” value (readout pge2/pge2d4 area ratio) stood at 4.192. Also, the IC50 reads like this: under setting [1], 0.0506 µM; under setting [2], 0.0596 µM. Besides, the “COX2 2 minutes pge2 area” value (readout pge2 area (counts)) is given as 4.109.

For `CS(=O)(=O)c1ccc(-c2cncc(NC(=O)c3cccs3)n2)cc1` [Compound 192], the “COX2 2 minutes pge2/pge2d4 area ratio Avg. LLE” value (readout pge2/pge2d4 area ratio) is 4.414. Moreover, the IC50 is 0.751 µM under setting [1] and 0.602 µM under setting [2]. Moreover, the “COX2 2 minutes pge2 area” value (readout pge2 area (counts)) is given as 4.524.

For the compound `CS(=O)(=O)c1ccc(-c2cnc3ccn(Cc4nccs4)c3n2)cc1` [Compound 176], the “COX2 2 minutes pge2/pge2d4 area ratio Avg. LLE” value (readout pge2/pge2d4 area ratio) came out at 3.19. The IC50 turned out to be 0.532 µM under setting [1] and 0.52 µM under setting [2]. Also, where the note is “readout pge2 area (counts)”, the “COX2 2 minutes pge2 area” value was determined as 3.2105.

`CS(=O)(=O)c1ccc(-c2ccc3c(n2)N(Cc2cccs2)CC3)cc1` [Compound 121]: the IC50 came to 0.121 µM under setting [1] and 0.124 µM under setting [2].

Turning to `COc1ncc(OCc2ccco2)nc1-c1ccc(S(C)(=O)=O)cc1` [Compound 81], under “readout pge2/pge2d4 area ratio”, the “COX2 2 minutes pge2/pge2d4 area ratio Avg. LLE” value was 5.231. In addition, the IC50 by setting is: under setting [1], 0.0559 µM; under setting [2], 0.041 µM. In addition, the “COX2 2 minutes pge2 area” value (readout pge2 area (counts)) was determined as 5.428.

As to `CS(=O)(=O)c1ccc(-c2cc3c(cn2)cnn3Cc2cccs2)cc1` [Compound 301], under setting [3], the IC50 was 5.2 µM.

As for `CS(=O)(=O)c1ccc(-n2cnc3ccc(NCc4cccs4)nc32)cc1` [Compound 184], the IC50 reads like this: under setting [1], 0.57 µM; under setting [2], 0.457 µM.

Regarding `CS(=O)(=O)c1ccc(-c2cnc3cn(Cc4cccs4)nc3n2)cc1` [Compound 288], under “readout pge2/pge2d4 area ratio”, the “COX2 2 minutes pge2/pge2d4 area ratio Avg. LLE” value was found to be 2.844. Further, where the note is “readout pge2 area (counts)”, the “COX2 2 minutes pge2 area” value is on record as 2.844. In addition, the IC50 under setting [3] was found to be 5.2 µM.

As to `CS(=O)(=O)c1ccc(-c2cncc(SCc3ccon3)n2)cc1` [Compound 148], the “COX2 2 minutes pge2/pge2d4 area ratio Avg. LLE” value (readout pge2/pge2d4 area ratio) was 5.484. Besides, the IC50 amounted to 0.268 µM under setting [1] and 0.255 µM under setting [2]. The “COX2 2 minutes pge2 area” value (readout pge2 area (counts)) was 5.518.

Regarding `C[C@@H](Nc1cccc(-c2ccc(S(C)(=O)=O)cc2)n1)c1ccco1` (single isomer, unassigned) [Compound 274], the “COX2 2 minutes pge2/pge2d4 area ratio Avg. LLE” value (readout pge2/pge2d4 area ratio) came to 1.914. Besides, the “COX2 2 minutes pge2 area” value (readout pge2 area (counts)) came out at 1.914. Further, the IC50 under setting [3] was found to be 5.2 µM.

`CS(=O)(=O)c1ccc(-c2cccc(NCc3ccn[nH]3)n2)cc1` [Compound 264]: for the setting “readout pge2/pge2d4 area ratio”, the “COX2 2 minutes pge2/pge2d4 area ratio Avg. LLE” value was 2.63. In addition, the IC50 reads like this: under setting [1], 4.62 µM; under setting [2], 4.13 µM. Also, where the note is “readout pge2 area (counts)”, the “COX2 2 minutes pge2 area” value was 2.705.

For `CS(=O)(=O)c1ccc(-c2cncc(OC[C@H]3CCCO3)n2)cc1` [Compound 252], the “COX2 2 minutes pge2/pge2d4 area ratio Avg. LLE” value (readout pge2/pge2d4 area ratio) is on record as 4.199. The IC50 under setting [1] was determined as 3.72 µM. In addition, the “COX2 2 minutes pge2 area” value (readout pge2 area (counts)) was 4.054.

On to `Cn1nccc1CNc1cccc(-c2ccc(S(C)(=O)=O)cc2)n1` [Compound 197], for which, for the setting “readout pge2/pge2d4 area ratio”, the “COX2 2 minutes pge2/pge2d4 area ratio Avg. LLE” value is on record as 3.969. In addition, the IC50 is, setting by setting: under setting [1], 0.951 µM; under setting [2], 0.832 µM. Moreover, the “COX2 2 minutes pge2 area” value (readout pge2 area (counts)) amounted to 4.01.

As for `CN1CCC(Nc2cncc(-c3ccc(S(C)(=O)=O)cc3)n2)CC1` [Compound 298], the IC50 under setting [3] came to 5.2 µM.

For the compound `CS(=O)(=O)c1ccc(-c2cncc(OCCc3cccs3)n2)cc1` [Compound 312], the “COX2 2 minutes pge2 area” value (readout pge2 area (counts)) was found to be 2.744. Also, the IC50 under setting [3] came out at 5.2 µM.

Regarding `CC(C)Oc1ncc(NCc2cccs2)nc1-c1ccc(S(C)(=O)=O)cc1` [Compound 75], the “COX2 2 minutes pge2/pge2d4 area ratio Avg. LLE” value (readout pge2/pge2d4 area ratio) is 3.984. Moreover, the IC50 reads like this: under setting [1], 0.0454 µM; under setting [2], 0.0623 µM. Moreover, under “readout pge2 area (counts)”, the “COX2 2 minutes pge2 area” value is on record as 3.887.

Regarding `CS(=O)(=O)c1ccc(-c2cncc(NCc3ccsc3)n2)cc1` [Compound 104], under “readout pge2/pge2d4 area ratio”, the “COX2 2 minutes pge2/pge2d4 area ratio Avg. LLE” value is recorded as 4.901. The IC50 is, setting by setting: under setting [1], 0.0911 µM; under setting [2], 0.0741 µM. The “COX2 2 minutes pge2 area” value (readout pge2 area (counts)) was determined as 4.97.

Take `COc1ccc(-c2ccc(S(C)(=O)=O)cc2)nc1NCc1cccs1` [Compound 160]: the “COX2 2 minutes pge2/pge2d4 area ratio Avg. LLE” value (readout pge2/pge2d4 area ratio) is recorded as 3.162. The IC50 runs as follows: under setting [1], 0.385 µM; under setting [2], 0.361 µM. For the same compound, for the setting “readout pge2 area (counts)”, the “COX2 2 minutes pge2 area” value came out at 3.174.

For `CS(=O)(=O)c1ccc(-n2ccc3ccc(Nc4cccnc4)nc32)cc1` [Compound 238], the IC50 under setting [1] turned out to be 2.66 µM and the IC50 under setting [2] was 3.28 µM.

With `CS(=O)(=O)c1ccc(-n2nnc3ccc(NCc4cccs4)nc32)cc1` [Compound 139], the IC50 reads like this: under setting [1], 0.207 µM; under setting [2], 0.219 µM.

Consider `Cn1ccc(CNc2cccc(-c3ccc(S(C)(=O)=O)cc3)n2)n1` [Compound 188], for which, under “readout pge2/pge2d4 area ratio”, the “COX2 2 minutes pge2/pge2d4 area ratio Avg. LLE” value was determined as 4.275. The IC50 was determined as 0.652 µM under setting [1] and 0.546 µM under setting [2]. For the same compound, the “COX2 2 minutes pge2 area” value (readout pge2 area (counts)) stood at 4.373.

In the case of `COc1ccc(-c2ccc(S(C)(=O)=O)nc2)nc1NCc1cccs1` [Compound 158], the “COX2 2 minutes pge2/pge2d4 area ratio Avg. LLE” value (readout pge2/pge2d4 area ratio) is given as 3.956. The IC50 by setting is: under setting [1], 0.359 µM; under setting [2], 0.349 µM. In addition, the “COX2 2 minutes pge2 area” value (readout pge2 area (counts)) is reported as 3.972.

Consider `CS(=O)(=O)c1ccc(-c2cncc(SCc3ncco3)n2)cc1` [Compound 217], for which the “COX2 2 minutes pge2/pge2d4 area ratio Avg. LLE” value (readout pge2/pge2d4 area ratio) came to 3.66. Moreover, the IC50 reads like this: under setting [1], 1.54 µM; under setting [2], 2.24 µM. The “COX2 2 minutes pge2 area” value (readout pge2 area (counts)) is reported as 3.522.
